The source of these data is US20080102451A1, “Companion diagnostic assays for endothelin receptor antagonists” (Abbott Laboratories, priority 2006, published 2008).

Each structure is given as a SMILES string.

In test [1] the test system is Mouse MC3T3 pre-osteoblastic cells. The experiment in a line: Microarray analysis of gene expression in ET-treated mouse osteoblasts. Format: cell-based. Particulars: for # Genes Blocked by ABT-627 (of genes down-regulated by ET) / # Genes Blocked by ABT-627 (of genes induced by ET): drug added 1 hour prior to ET. An excerpt:
(§1) Mouse MC3T3 pre-osteoblastic cells (subclone 4) were purchased from ATCC (Manassis, Va.) and propagated in αMEM media without ascorbic acid (Invitrogen, Carlsbad, Calif.) supplemented with 10% FBS (Invitrogen). Human Mesenchymal Stem Cells (MSCs) were purchased from Cambrex (Walkersville, Md.) and propagated according in MSCGM™ media (Cambrex). To initiate differentiation of the MSC into human osteoblasts, the growth media was replaced by osteogenic differentiation medium (OGM, Cambrex).
(§2) Mouse preosteoblastic MC3T3 cells as well as primary human osteoblasts were treated with ET, from Sigma (St. Louis, Mo.), for 2, 4, and 6 hours in the absence or presence of the ETa receptor antagonist ABT-627, from Abbott Laboratories (Abbott Park, Ill.). The drug was added 1 hour prior to the addition of ET.
Total RNA was extracted from the treated cell lines and purified on RNeasy columns (Qiagen, Valencia, Calif.). Labeled cRNA was prepared according to the microarray manufacturer Affymetrix's protocol and hybridized to either mouse 430A 2.0 or human U133A 2.0 arrays (Affymetrix, Santa Clara, Calif.). Gene expression fold changes for each treatment were calculated by combining three biological replicates for each treatment using the Rosetta Resolver's Affymetrix error model software and building a ratio from the resulting values. All genes regulated ≧1.5-fold with a p-value of ≦0.01 were retained for further analysis. Conventional two-dimensional clustering was then performed by using the agglomerative hierarchical clustering algorithm. The Euclidean distance was used as the similarity metric.

Test [2] concerns primary human osteoblasts. The experiment in a line: Microarray analysis of gene expression in ET-treated primary human osteoblasts. The class given is cell-based. To be noted: ET-1 treatment.
Source text: as §1, §2
Total RNA was extracted from the treated cell lines and purified on RNeasy columns (Qiagen, Valencia, Calif.). Labeled cRNA was prepared according to the microarray manufacturer Affymetrix's protocol and hybridized to either mouse 430A 2.0 or human U133A 2.0 arrays (Affymetrix, Santa Clara, Calif.). Gene expression fold changes for each treatment were calculated by combining three biological replicates for each treatment using the Rosetta Resolver's Affymetrix error model software and building a ratio from the resulting values. […]

Another test concerns PAI-1. The experiment in a line: ELISA for PAI-1 secreted by MC3T3 osteoblast cells. Format: cell-based, mouse. To be noted: MC3T3 cell line.
Source text: as §1, §2
(§3) Mouse MC3T3 osteoblast cells were propagated as set out above, and at times indicated were harvested and spun at 250×g for 10 minutes at room temperature. The clarified supernatants were aliquoted and frozen until analyzed. 200 microliters of each sample was tested in quadruplicate by commercially available ELISA assay kits for PAI-1 (Molecular Innovations, Southfield, Mich.), OPG (Biomedica, San Diego, Calif.) and IL-6 (Ray Biotech, Norcross, Ga.). The ELISA tests were performed according to the manufacturer's instructions. […]
On the technique in general: An ELISA detects its analyte on a solid surface through an enzyme-linked reagent.

The subject of a further test is OPG. The experiment in a line: ELISA for OPG secreted by MC3T3 osteoblast cells. Format: cell-based, mouse. Particulars: MC3T3 cell line.
Source text: as §1, §2, §3

The subject of the next test is IL-6. The experiment in a line: ELISA for IL-6 secreted by MC3T3 osteoblast cells. Format: cell-based, mouse. Particulars: MC3T3 cell line.
Source text: as §1, §2, §3

A further test has as its system osteoblastic metastases. To be noted: mice injected with ET-1-secreting breast cancer cell lines; Yin et al. 2003; cited from earlier work.
Test [3] has as its system metastatic hormone-refractory prostate cancer. Particulars: patients with metastatic hormone-refractory prostate cancer; Nelson et al. 2003; cited from earlier work.
Where [4] appears, read: mouse osteoblasts, time point 4 hr.
Setting [5] is: mouse osteoblasts, time point 6 hr.
The mark [6] stands for this setting: endothelin in the presence of ABT-627.

On to `CC[C@H](C)[C@H](NC(=O)[C@H](CC(=O)O)NC(=O)[C@H](CC(C)C)NC(=O)[C@H](Cc1c[nH]cn1)NC(=O)[C@@H]1CSSC[C@H](N)C(=O)N[C@@H](CO)C(=O)N[C@H]2CSSC[C@H](NC(=O)[C@H](CCC(=O)O)NC(=O)[C@H](CCCCN)NC(=O)[C@H](CC(=O)O)NC(=O)[C@H](CCSC)NC(=O)[C@H](CC(C)C)NC(=O)[C@H](CO)NC(=O)[C@H](CO)NC2=O)C(=O)N[C@@H](C(C)C)C(=O)N[C@@H](Cc2ccc(O)cc2)C(=O)N[C@@H](Cc2ccccc2)C(=O)N1)C(=O)N[C@H](C(=O)N[C@@H](Cc1c[nH]c2ccccc12)C(=O)O)[C@@H](C)CC` [ET], for which the “Expression of genes coding for secreted proteins (PAI-1, uPA, TGFbeta2, IL-6, IL-8)” value in test [1] (mouse osteoblasts, ET-1 treatment) was “strongly upregulated”; in test [2], “strongly upregulated”. Besides, the “# Genes Down-regulated by ET” value in test [1] (mouse osteoblasts, time point 2 hr) is 423; in test [1] (setting [4]) it was 295; in test [1] (setting [5]), 95. The “# Genes Induced by ET” value in test [1] (mouse osteoblasts, time point 2 hr, regulated >=1.5-fold, p<=0.01) was found to be 608; in test [1] (setting [4]), 472; in test [1] (setting [5]), 194. Further, the “Expression of apoptosis suppression genes (Nur77, Flt1, NFATc1)” value in test [1] (osteoblastic cells, ET treatment) is “induced”. For the same molecule, the “Expression of PAI-1 (ELISA)” value in the test on PAI-1 (treatment with endothelin) is recorded as “strongly induced”. The “Expression of OPG (ELISA)” value in the test on OPG (treatment with endothelin) is on record as “strongly induced”. Besides, the “Expression of IL-6 (ELISA)” value with IL-6 (treatment with endothelin) is listed as “strongly induced”.
Turning to `CCCCN(CCCC)C(=O)CN1C[C@H](c2ccc3c(c2)OCO3)[C@@H](C(=O)O)[C@@H]1c1ccc(OC)cc1` [ABT-627, (2R,3R,4S)-(+)-2-(4-Methoxyphenyl)-4-(1,3-benzodioxol-5-yl)-1-(N,N-di(n-butyl)aminocarbonylmethyl)-pyrrolidine-3-carboxylic acid], the “Induction by ET-1 of osteoblastic maturation genes (OPG, COX-2, Dmp1, Tgfbi, CTGF, Klf10)” value in test [1] (osteoblastic cells, pre-treatment with ABT-627) is “blocked”. The “Induction by ET of apoptosis suppression genes (Nur77, Flt1, NFATc1)” value in test [1] (osteoblastic cells, with ABT-627) is “the induction was blocked”. Also, in test [1] (time point 2 hr), the “Genes Blocked by ABT-627 as percent of genes induced by ET” value (“Genes Blocked by ABT-627 as percent” below) was “(96%)”, the “# Genes Blocked by ABT-627 (of genes down-regulated by ET)” value was found to be 403 and the “# Genes Blocked by ABT-627 (of genes induced by ET)” value stood at 581. In addition, in test [1] (time point 4 hr), the “Genes Blocked by ABT-627 as percent” value is reported as “(83%)”, the “# Genes Blocked by ABT-627 (of genes down-regulated by ET)” value amounted to 262 and the “# Genes Blocked by ABT-627 (of genes induced by ET)” value stood at 390. Besides, in test [1] (time point 6 hr), the “Genes Blocked by ABT-627 as percent” value is listed as “(97%)”, the “# Genes Blocked by ABT-627 (of genes down-regulated by ET)” value is given as 93 and the “# Genes Blocked by ABT-627 (of genes induced by ET)” value is 189. For the same molecule, the “Effect of pre-treatment on ET gene induction events” value in test [1] (two-dimensional hierarchical clustering, all three timepoints) was “abrogated almost all of these gene induction events”. In test [1] (without ET), the “Gene expression changes caused by the antagonist alone” value was “very few gene expression changes”. Further, the “Endothelin-induced expression of PAI-1 (ELISA)” value with PAI-1 (setting [6]) is on record as “substantial suppression”. In addition, in the test on OPG (setting [6]), the “Endothelin-induced expression of OPG (ELISA)” value is listed as “substantial suppression”. In addition, the “Endothelin-induced expression of IL-6 (ELISA)” value in the test on IL-6 (setting [6]) is recorded as “substantial suppression”. Moreover, the Metastatic growth entry in the test with osteoblastic metastases was “suppressed the metastatic growth”. Moreover, in test [3], the “Time to disease progression” value is listed as “extended time to disease progression”.
